This note sets out measurements from patent US20250101470A1, “METHOD FOR IMPROVING THE YIELD OF ERINACINE A BY LIQUID FERMENTATION OF HERICIUM ERINACEUS” (Zhejiang University of Technology, priority 2023, published 2025).

The assay concerns Hericium erinaceus strain ACCC50268. In words: Liquid fermentation of Hericium erinaceus with an inducer added; mycelium weighed, Erinacine A in methanol extract measured by HPLC. Format: cell-based. As to conditions: for effect on Erinacine A yield (in words): 5 mg/L added on 5th day; for increase of Erinacine A content in the mycelium: 5 mg/L inducer versus no inducer (0.19±0.05 mg/g dry mycelium); for increase of Erinacine A yield: 5 mg/L inducer versus no inducer (4.48±0.96 mg/L). Here is the method: The strain number of a Hericium erinaceus strain is ACCC50268; source: China Agricultural Culture Collection and Management Center.
(S.1) A strain of Hericium erinaceus was subcultured for 3 generations to achieve strain activation. The subculture temperature is 25-28° C., and the optimal culture temperature in this example is 28° C., and the time is 14 days, so that the entire inclined plane can be grown to obtain a slope strain. The components of PDA inclined medium are: potato extract, 15-25 g of glucose, 10-15 g of agar powder, and the volume is set to 1 L with water. In this example, the optimal PDA inclined medium components are as follows: potato extract, 20 g of glucose, 15 g of agar powder, and the volume is determined to 1 L with water;
(S.2) The slope strains obtained in step (S.1) were inoculated into the primary liquid seed medium for culture. One vial of bevel strains was inoculated into two vials of primary liquid seed medium. The components of liquid seed medium are: glucose 25-35 g, soybean meal powder 15-30 g, potassium dihydrogen phosphate 0.5-2 g, magnesium sulfate 0-1 g, and the balance is water. The culture conditions of liquid seed medium are: 1-10 days at 25-28° C. and 130-160 rpm in the dark. In this example, the optimal liquid seed medium components are as follows: glucose 30 g, soybean meal powder 20 g, potassium dihydrogen phosphate 1 g, magnesium sulfate 0.5 g, and the balance is water. The medium was fixed to 1 L with purified water, and the prepared liquid seed medium was loaded into a 500 mL Erlenmeyer flask with a liquid volume of 200 mL, and cultured at 27° C. and 140 rpm for 7 days in the dark, and the liquid seeds of Hericium erinaceus were obtained.
(S.3) the liquid seeds obtained in step (S.2) are inoculated into the liquid fermentation medium for liquid fermentation culture, the ratio of the liquid seed inoculation volume of Hericium erinaceus to the volume of the liquid fermentation medium is 8-12.5% (i.e., the inoculation amount of Hericium erinaceus liquid seeds is 8-12.5%), and the optimal inoculation amount of Hericium erinaceus liquid seeds in this example is 10%. The components of liquid fermentation medium are: glucose 25-50 g, yeast powder 10-30 g, potassium dihydrogen phosphate 0.5-2 g, magnesium sulfate 0-1 g, and the balance is water. The culture conditions of liquid fermentation medium are: 1-10 days at 25-28° C. and 130-160 rpm in the dark. In this example, the optimal liquid fermentation medium components are as follows: 30 g of glucose, 30 g of yeast powder, 1 g of potassium dihydrogen phosphate, 0.5 g of magnesium sulfate, and the balance is water. The medium was fixed to 1 L with distilled water, and the prepared liquid seed medium was packed into a 500 mL Erlenmeyer flask with a liquid volume of 200 mL, and incubated at 27° C. and 140 rpm for 7 days in the dark. […]
seeds of Hericium erinaceus obtained in step (S.2) into liquid fermentation medium for liquid fermentation, […] fermentation medium to a concentration of 5 mg/L. […] After the end of fermentation, the medium was filtered through 80 mesh gauze, washed with water three times, and then dried overnight at 60° C. with hot air to obtain Hericium erinaceus mycelium;
(S.4) The Hericium erinaceus mycelium obtained in step (S.3) was crushed, and 1 g of Hericium erinaceus mycelium dry powder was added to 20 mL of 80% methanol, heated and ultrasonicated. The reaction conditions for ultrasonic extraction of Erinacine A are as follows: ultrasonic power is 200-350 W, heating reaction temperature is 50-70° C., and ultrasonic reaction time is 40-90 min. In this example, the reaction conditions for the optimal ultrasonic extraction of Erinacine A are as follows: ultrasonic extraction at 60° C. and ultrasonic power of 300 W for 60 min. The supernatant was centrifuged to obtain an alcohol extract containing Erinacine A. The alcohol extract was filtered through a 0.22 μm filter membrane and then analyzed in liquid phase. […]

Setting [1] is: inducer 5 mg/L in liquid fermentation medium, added on 5th day, 6 days induction fermentation.
The mark [2] stands for this setting: inducer 5 mg/L in liquid fermentation medium, added on 5th day, 6 days induction fermentation, listed as Example 2.
The mark [3] stands for this setting: 5 mg/L, added on 4th day, 6 days induction fermentation.
Setting [4] is: 5 mg/L, added on 5th day, 3 days induction fermentation.
Setting [5] is: 5 mg/L, added on 5th day, 5 days induction fermentation.
[6] abbreviates: 5 mg/L, added on 5th day, 8 days induction fermentation.
[7] abbreviates: 5 mg/L, added on 6th day, 6 days induction fermentation.
Setting [8] is: 5 mg/L, added on 7th day, 6 days induction fermentation.
Setting [9] is: 5 mg/L, added on 8th day, 6 days induction fermentation.
The mark [10] stands for this setting: 5 mg/L, added on third day, 6 days induction fermentation.
Setting [11] is: 10 mg/L, added on 5th day, 6 days induction fermentation.
Setting [12] is: 50 mg/L, added on 5th day, 6 days induction fermentation.
Setting [13] is: inducer 5 mg/L in liquid fermentation medium, added on 5th day, 6 days induction fermentation, listed as Example 1.
The mark [14] stands for this setting: 1 mL of the substance (purity greater than 95%) added on 5th day, 6 days induction fermentation.
Setting [15] is: 1 mg/L, added on 5th day, 6 days induction fermentation.
Setting [16] is: 5 mg/L, added on 5th day, 1 day induction fermentation.
The mark [17] stands for this setting: 5 mg/L, added on 5th day, 2 days induction fermentation.
[18] abbreviates: 5 mg/L, added on 5th day, 4 days induction fermentation.
Where [19] appears, read: 20 mg/L, added on 5th day, 6 days induction fermentation.

Several values for one entry are separate records, joined by “and”; a condition that tells them apart may be missing. Equal values may be shown once.

Take `C=C(C)[C@H]1Cc2c(ccc3c2O[C@@H]2COc4cc(OC)c(OC)cc4[C@@H]2C3=O)O1` [rotenone]: the “increase of Erinacine A content in the mycelium” value is “about 2.52 times” and the “increase of Erinacine A yield” value was “about 2.06 times”. The “effect on Erinacine A yield (in words)” value (6 days induction fermentation) is “positive effect on the increase of Erinacine A yield”. In addition, under setting [1], the “Erinacine A content” value is 0.67 mg/g dried mycelium and 0.67±0.04 mg/g dried mycelium; the “Erinacine A yield” value was 13.72 mg/L and 13.72 ± 0.24 mg/L; the Mycelium yield stood at 8.50 ± 1.69 g/L. Besides, under setting [2], the “Erinacine A content” value worked out at 0.67 ± 0.04 mg/g dried mycelium and the “Erinacine A yield” value is 13.72 ± 0.24 mg/L.
As for `C[n+]1ccc(-c2cc[n+](C)cc2)cc1` [methyl viologen], the “increase of Erinacine A content in the mycelium” value is recorded as “about 115.47 times” and the “increase of Erinacine A yield” value is “about 92.60 times”. Besides, the “effect on Erinacine A yield (in words)” value (6 days induction fermentation) is “significantly increased the yield of Erinacine A”. Further, under setting [3], the “Erinacine A content” value was 1.52 ± 0.30 mg/g dried mycelium, the “Erinacine A yield” value is 22.18 ± 3.84 mg/L and the Mycelium yield is given as 2.00 ± 0.84 g/L. Under setting [4], the “Erinacine A content” value stood at 2.29 ± 0.52 mg/g dried mycelium, the “Erinacine A yield” value came out at 40.30 ± 7.52 mg/L and the Mycelium yield was found to be 17.68 ± 0.50 g/L. Also, under setting [5], the “Erinacine A content” value turned out to be 16.58 ± 0.43 mg/g dried mycelium, the “Erinacine A yield” value worked out at 276.77 ± 4.72 mg/L and the Mycelium yield worked out at 5.45 ± 1.39 g/L. Besides, under setting [6], the “Erinacine A content” value was 8.97 ± 2.33 mg/g dried mycelium, the “Erinacine A yield” value is on record as 179.50 ± 62.29 mg/L and the Mycelium yield turned out to be 19.79 ± 0.76 g/L. Besides, under setting [7], the “Erinacine A content” value was 2.98 ± 1.16 mg/g dried mycelium, the “Erinacine A yield” value is 69.29 ± 30.01 mg/L and the Mycelium yield was 23.05 ± 1.08 g/L. In addition, under setting [8], the “Erinacine A content” value was 2.68 ± 0.66 mg/g dried mycelium, the “Erinacine A yield” value came to 61.60 ± 10.06 mg/L and the Mycelium yield was found to be 23.22 ± 1.93 g/L. Besides, under setting [9], the “Erinacine A content” value worked out at 0.57 ± 0.12 mg/g dried mycelium, the “Erinacine A yield” value is recorded as 13.29 ± 2.55 mg/L and the Mycelium yield is reported as 23.28 ± 0.57 g/L. Further, under setting [10], the “Erinacine A content” value was 0.05 ± 0.01 mg/g dried mycelium, the “Erinacine A yield” value worked out at 0.41 ± 0.06 mg/L and the Mycelium yield amounted to 8.64 ± 1.54 g/L. For the same compound, under setting [11], the “Erinacine A content” value worked out at 20.61 ± 3.21 mg/g dried mycelium, the “Erinacine A yield” value is recorded as 400.44 ± 69.30 mg/L and the Mycelium yield was found to be 7.40 ± 0.36 g/L. Further, under setting [12], the “Erinacine A content” value is given as 0.21 ± 0.04 mg/g dried mycelium, the “Erinacine A yield” value is on record as 3.71 ± 1.06 mg/L and the Mycelium yield came to 17.71 ± 1.29 g/L. Besides, under setting [1], the “Erinacine A content” value amounted to 21.94±2.40 mg/g dried mycelium, the “Erinacine A yield” value amounted to 414.84 ± 30.03 mg/L and the Mycelium yield stood at 18.96 ± 0.69 g/L. Also, under setting [13], the “Erinacine A content” value was 94.94 ± 2.40 mg/g dried mycelium; the “Erinacine A yield” value was 414.84 ± 30.03 mg/L and 418.84 ± 30.03 mg/L. Also, the “effect on liquid fermentation growth of Hericium erinaceus (in words)” value (methyl viologen solution added at different times) is reported as “inhibitory effect on the liquid fermentation growth of Hericium erinaceus”.
On to `CCCCCCCC/C=C\CCCCCCCC(=O)O` [oleic acid], for which the “effect on synthesis of Erinacine A (in words)” value (1 mL added on the 5th day of liquid fermentation) is “did not show obvious stimulating effects”. Also, under setting [14], the “Erinacine A content” value came to 0.20 ± 0.10 mg/g dried mycelium, the “Erinacine A yield” value stood at 4.70 ± 2.16 mg/L and the Mycelium yield turned out to be 23.72 ± 1.04 g/L.
methyl viologen: the “Erinacine A content” value is on record as 0.63 ± 0.09 mg/g dried mycelium under setting [15]; 0.07 ± 0.01 mg/g dried mycelium under setting [16]; 0.68 ± 0.27 mg/g dried mycelium under setting [17]; 5.49 ± 1.60 mg/g dried mycelium under setting [18]; 1.50 ± 0.38 mg/g dried mycelium under setting [19]. For the same compound, the “Erinacine A yield” value runs as follows: under setting [15], 13.93 ± 4.56 mg/L; under setting [17], 12.53 ± 3.82 mg/L; under setting [18], 103.99 ± 18.67 mg/L; under setting [19], 29.47 ± 7.44 mg/L. For the same compound, the Mycelium yield runs as follows: under setting [15], 9.49 ± 2.94 g/L; under setting [16], 20.16 ± 0.85 g/L; under setting [17], 17.94 ± 1.68 g/L; under setting [19], 19.61 ± 0.48 g/L.
